Assays:
[1] = target: T1, HiBit-BRM fusion protein (Homo sapiens, UniProt P51531); test: HiBiT-BRM cell-based degradation assay (Nano-Glo HiBiT Lytic Detection, 24 h); settings: HeLa cell line expressing HiBiT-BRM; for DC50: read-out: BRM HiBit Degradation IC50
T1 construct: expressed in transfected cells
Summary of the method: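 Stable HiBiT-BRM HeLa line; 24 h compound exposure, top final 30 μM, 3-fold, 10 pts in duplicate. Lytic HiBiT/LgBiT luminescence readout. % degradation vs DMSO (0%) and 2 μM known BRM/BRG1 degrader (100%).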

[2] = target: T2, HiBit-BRG1 fusion protein (Homo sapiens, UniProt P51532); test: HiBiT-BRG1 cell-based degradation assay (Nano-Glo HiBiT Lytic Detection, 24 h); settings: HeLa cell line expressing HiBit-BRG1 and LgBit; for Dmax: read-out: BRG1 HiBit Degradation Maximum (%); for DC50: read-out: BRMG1 HiBit Degradation IC50
T2 construct: expressed in transfected cells
Summary of the method: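 Luminescence from reconstituted NanoBiT luciferase after lytic detection served as read-out of remaining HiBit-BRG1 in stable HeLa cells, which also express LgBit. Cells were seeded at 5000 per well and incubated with compound for 24 h. DMSO and a 2 μM known degrader defined the control range.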

T1 sequence (P51531 whole entry, the tested form may be a part): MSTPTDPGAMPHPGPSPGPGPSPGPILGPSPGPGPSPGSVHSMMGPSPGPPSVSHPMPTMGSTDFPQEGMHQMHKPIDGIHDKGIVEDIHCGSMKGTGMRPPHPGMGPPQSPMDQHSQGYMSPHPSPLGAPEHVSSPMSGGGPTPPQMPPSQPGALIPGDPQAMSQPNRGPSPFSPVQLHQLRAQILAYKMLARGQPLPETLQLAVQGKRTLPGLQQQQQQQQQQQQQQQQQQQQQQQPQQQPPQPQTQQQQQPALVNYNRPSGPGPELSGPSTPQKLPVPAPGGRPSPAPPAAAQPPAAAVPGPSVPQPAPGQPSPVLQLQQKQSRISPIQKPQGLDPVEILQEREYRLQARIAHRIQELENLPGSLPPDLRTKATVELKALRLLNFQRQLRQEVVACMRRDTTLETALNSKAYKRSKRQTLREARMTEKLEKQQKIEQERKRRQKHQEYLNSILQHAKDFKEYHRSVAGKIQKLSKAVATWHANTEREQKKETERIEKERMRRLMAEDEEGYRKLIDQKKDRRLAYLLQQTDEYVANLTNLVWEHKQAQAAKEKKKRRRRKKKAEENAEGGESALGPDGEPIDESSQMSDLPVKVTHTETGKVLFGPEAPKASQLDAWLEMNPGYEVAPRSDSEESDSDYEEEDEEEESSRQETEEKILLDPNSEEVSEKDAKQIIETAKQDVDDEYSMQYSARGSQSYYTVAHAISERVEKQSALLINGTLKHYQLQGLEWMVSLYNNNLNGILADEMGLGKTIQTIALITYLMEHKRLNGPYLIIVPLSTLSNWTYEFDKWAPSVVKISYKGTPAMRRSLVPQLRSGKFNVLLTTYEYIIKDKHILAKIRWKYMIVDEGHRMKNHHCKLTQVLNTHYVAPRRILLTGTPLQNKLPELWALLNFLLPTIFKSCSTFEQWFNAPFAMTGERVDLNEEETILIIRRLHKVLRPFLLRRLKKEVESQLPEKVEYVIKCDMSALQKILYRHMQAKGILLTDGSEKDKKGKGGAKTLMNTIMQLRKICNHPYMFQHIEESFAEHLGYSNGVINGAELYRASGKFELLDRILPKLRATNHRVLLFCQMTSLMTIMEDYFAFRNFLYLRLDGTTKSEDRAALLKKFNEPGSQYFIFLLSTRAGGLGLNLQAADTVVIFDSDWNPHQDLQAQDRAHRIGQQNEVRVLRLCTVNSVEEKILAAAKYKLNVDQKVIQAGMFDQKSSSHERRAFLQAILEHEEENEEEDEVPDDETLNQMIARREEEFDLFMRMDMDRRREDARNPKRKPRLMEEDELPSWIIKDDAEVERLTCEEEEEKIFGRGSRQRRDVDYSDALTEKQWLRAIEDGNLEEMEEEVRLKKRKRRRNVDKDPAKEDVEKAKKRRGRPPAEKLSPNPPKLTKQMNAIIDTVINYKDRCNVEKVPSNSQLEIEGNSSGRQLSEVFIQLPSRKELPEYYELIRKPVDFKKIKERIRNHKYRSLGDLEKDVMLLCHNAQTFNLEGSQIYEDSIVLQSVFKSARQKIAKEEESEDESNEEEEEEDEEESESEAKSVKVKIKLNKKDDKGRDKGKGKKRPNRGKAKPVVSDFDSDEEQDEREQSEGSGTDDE
T2 sequence (P51532 whole entry, the tested form may be a part): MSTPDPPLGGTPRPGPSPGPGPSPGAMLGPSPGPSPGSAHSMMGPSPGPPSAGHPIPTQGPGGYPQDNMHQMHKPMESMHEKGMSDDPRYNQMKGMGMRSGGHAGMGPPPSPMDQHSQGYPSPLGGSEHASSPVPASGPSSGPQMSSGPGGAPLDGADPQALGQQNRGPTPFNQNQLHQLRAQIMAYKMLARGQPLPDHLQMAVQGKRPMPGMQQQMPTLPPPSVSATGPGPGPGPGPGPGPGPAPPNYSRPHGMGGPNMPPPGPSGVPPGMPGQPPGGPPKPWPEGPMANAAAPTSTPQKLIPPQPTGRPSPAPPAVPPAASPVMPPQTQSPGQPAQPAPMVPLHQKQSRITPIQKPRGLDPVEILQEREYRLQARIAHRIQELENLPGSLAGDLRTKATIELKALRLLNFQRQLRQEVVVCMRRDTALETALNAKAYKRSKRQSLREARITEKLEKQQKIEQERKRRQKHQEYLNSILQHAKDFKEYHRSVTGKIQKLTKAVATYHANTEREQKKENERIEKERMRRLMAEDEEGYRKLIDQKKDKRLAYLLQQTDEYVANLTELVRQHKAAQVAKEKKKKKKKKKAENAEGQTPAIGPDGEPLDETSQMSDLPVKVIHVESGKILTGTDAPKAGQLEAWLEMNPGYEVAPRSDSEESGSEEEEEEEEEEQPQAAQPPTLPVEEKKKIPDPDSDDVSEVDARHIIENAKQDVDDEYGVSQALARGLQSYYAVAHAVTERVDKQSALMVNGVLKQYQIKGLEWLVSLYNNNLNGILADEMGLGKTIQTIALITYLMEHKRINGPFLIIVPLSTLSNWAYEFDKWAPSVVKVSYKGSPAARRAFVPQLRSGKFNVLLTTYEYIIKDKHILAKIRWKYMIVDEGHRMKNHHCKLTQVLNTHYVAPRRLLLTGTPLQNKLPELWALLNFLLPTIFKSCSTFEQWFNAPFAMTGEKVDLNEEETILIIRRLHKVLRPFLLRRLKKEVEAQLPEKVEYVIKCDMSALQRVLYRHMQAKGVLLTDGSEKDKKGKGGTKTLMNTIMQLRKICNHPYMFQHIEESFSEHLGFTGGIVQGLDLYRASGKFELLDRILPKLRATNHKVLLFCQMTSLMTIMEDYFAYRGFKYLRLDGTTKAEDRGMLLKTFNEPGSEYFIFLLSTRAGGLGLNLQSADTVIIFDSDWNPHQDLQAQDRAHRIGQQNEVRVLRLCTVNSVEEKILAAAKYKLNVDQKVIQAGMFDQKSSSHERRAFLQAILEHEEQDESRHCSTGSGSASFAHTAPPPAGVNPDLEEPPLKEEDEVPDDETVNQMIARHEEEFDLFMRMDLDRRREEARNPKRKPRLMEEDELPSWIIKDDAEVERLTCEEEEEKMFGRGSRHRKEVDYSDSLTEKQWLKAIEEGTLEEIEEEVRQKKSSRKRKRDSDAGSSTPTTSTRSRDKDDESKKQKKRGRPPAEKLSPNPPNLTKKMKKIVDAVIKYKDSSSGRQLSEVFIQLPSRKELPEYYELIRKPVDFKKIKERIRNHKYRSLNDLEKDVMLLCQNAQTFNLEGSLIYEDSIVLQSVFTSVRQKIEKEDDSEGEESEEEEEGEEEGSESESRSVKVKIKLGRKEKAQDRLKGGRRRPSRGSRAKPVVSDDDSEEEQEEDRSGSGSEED

| Compound | DC50 [1] [nM] | Dmax [2] [%] | DC50 [2] [nM] | BRM HiBit Degradation Maximum (%) [1] |
| --- | --- | --- | --- | --- |
| Cc1ncsc1-c1ccc([C@H](C)NC(=O)[C@@H]2C[C@@H](O)CN2C(=O)[C@@H](c2cc(OCCN3CC(C(C)(C)c4cc5cc(-c6ccccc6O)nnc5[nH]4)C3)no2)C(C)C)cc1 (racemic) [Compound 289, (2S,4R)-4-hydroxy-1-((R)-2-(3-(2-(3-(2-(3-(2-hydroxyphenyl)-7H-pyrrolo[2,3-c]pyridazin-6-yl)propan-2-yl)azetidin-1-yl)ethoxy)isoxazol-5-yl)-3-methylbutanoyl)-N-((S)-1-(4-(4-methylthiazol-5-yl)phenyl)ethyl)pyrrolidine-2-carboxamide] | > 10 | < 50 | – | A (“A” indicates maximum degradation ≥ 75%) |
| Cc1ncsc1-c1ccc([C@H](C)NC(=O)[C@@H]2C[C@@H](O)CN2C(=O)[C@@H](c2cc(OCCN3CCC4(CC3)CC(c3cc5cc(-c6ccccc6O)nnc5[nH]3)C4)no2)C(C)C)cc1 (racemic) [Compound 290, (2S,4R)-4-hydroxy-1-((R)-2-(3-(2-(2-(3-(2-hydroxyphenyl)-7H-pyrrolo[2,3-c]pyridazin-6-yl)-7-azaspiro[3.5]nonan-7-yl)ethoxy)isoxazol-5-yl)-3-methylbutanoyl)-N-((S)-1-(4-(4-methylthiazol-5-yl)phenyl)ethyl)pyrrolidine-2-carboxamide] | > 10 | > 50 | > 100 | A (“A” indicates maximum degradation ≥ 75%) |
| Cc1ncsc1-c1ccc([C@H](C)NC(=O)[C@@H]2C[C@@H](O)CN2C(=O)[C@@H](c2cc(OCCN3CCC[C@H](c4c[nH]c5nnc(-c6ccccc6O)cc45)C3)no2)C(C)C)cc1 (racemic) [Compound 291, (2S,4R)-4-hydroxy-1-((R)-2-(3-(2-((R)-3-(3-(2-hydroxyphenyl)-7H-pyrrolo[2,3-c]pyridazin-5-yl)piperidin-1-yl)ethoxy)isoxazol-5-yl)-3-methylbutanoyl)-N-((S)-1-(4-(4-methylthiazol-5-yl)phenyl)ethyl)pyrrolidine-2-carboxamide] | > 10 | < 50 | – | B (“B” indicates maximum degradation ≥ 50%) |
| Cc1ncsc1-c1ccc([C@H](C)NC(=O)[C@@H]2C[C@@H](O)CN2C(=O)[C@@H](c2cc(OCCN3CC[C@H](c4c[nH]c5nnc(-c6ccccc6O)cc45)C3)no2)C(C)C)cc1 (racemic) [Compound 292, (2S,4R)-4-hydroxy-1-((R)-2-(3-(2-((R)-3-(3-(2-hydroxyphenyl)-7H-pyrrolo[2,3-c]pyridazin-5-yl)pyrrolidin-1-yl)ethoxy)isoxazol-5-yl)-3-methylbutanoyl)-N-((S)-1-(4-(4-methylthiazol-5-yl)phenyl)ethyl)pyrrolidine-2-carboxamide] | > 100 | < 50 | – | B (“B” indicates maximum degradation ≥ 50%) |
| Cc1ncsc1-c1ccc(CNC(=O)[C@@H]2C[C@@H](O)CN2C(=O)[C@@H](NC(=O)CCN(C)C23CC(c4cc5cc(-c6ccccc6O)nnc5[nH]4)(C2)C3)C(C)(C)C)cc1 (racemic) [Compound 293, (2S,4R)-4-hydroxy-1-[(2S)-2-[3-([3-[3-(2-hydroxyphenyl)-7H-pyrrolo[2,3-c]pyridazin-6-yl]bicyclo[1.1.1]pentan-1-yl](methyl)amino)propanamido]-3,3-dimethylbutanoyl]-N-[[4-(4-methyl-1,3-thiazol-5-yl)phenyl]methyl]pyrrolidine-2-carboxamide] | > 100 | > 50 | > 1000 | A (“A” indicates maximum degradation ≥ 75%) |
| Cc1ncsc1-c1ccc([C@H](C)NC(=O)[C@@H]2C[C@@H](O)CN2C(=O)[C@@H](c2cc(OCCN3CC(Cc4cc5cc(-c6ccccc6O)nnc5[nH]4)C3)no2)C(C)C)cc1 (racemic) [Compound 294, (2S,4R)-4-hydroxy-1-((R)-2-(3-(2-(3-((3-(2-hydroxyphenyl)-7H-pyrrolo[2,3-c]pyridazin-6-yl)methyl)azetidin-1-yl)ethoxy)isoxazol-5-yl)-3-methylbutanoyl)-N-((S)-1-(4-(4-methylthiazol-5-yl)phenyl)ethyl)pyrrolidine-2-carboxamide] | > 100 | < 50 | – | A (“A” indicates maximum degradation ≥ 75%) |

More lines, main results first:

| DC50 [1] [nM] | Dmax [2] [%] | DC50 [2] [nM] | Compound | BRM HiBit Degradation Maximum (%) [1] |
| --- | --- | --- | --- | --- |
| > 10 | > 75 | > 100 | Cc1ncsc1-c1ccc([C@H](C)NC(=O)[C@@H]2C[C@@H](O)CN2C(=O)[C@@H](c2cc(OCCNCc3ccc(Cc4cc5cc(-c6ccccc6O)nnc5[nH]4)cc3)no2)C(C)C)cc1 (racemic) [Compound 295] | A (“A” indicates maximum degradation ≥ 75%) |
| > 1000 | > 50 | > 1000 | Cc1ncsc1-c1ccc(CNC(=O)[C@@H]2C[C@@H](O)CN2C(=O)[C@@H](NC(=O)CCNC23CC(c4cc5cc(-c6ccccc6O)nnc5[nH]4)(C2)C3)C(C)(C)C)cc1 (racemic) [Compound 296] | A (“A” indicates maximum degradation ≥ 75%) |
| – | < 50 | – | Cc1ncsc1-c1ccc(CNC(=O)[C@@H]2C[C@@H](O)CN2C(=O)[C@@H](NC(=O)CCCCN2CC(c3cc4cc(-c5ccccc5O)nnc4[nH]3)C2)C(C)(C)C)cc1 (racemic) [Compound 297, (2S,4R)-4-hydroxy-1-((S)-2-(5-(3-(3-(2-hydroxyphenyl)-7H-pyrrolo[2,3-c]pyridazin-6-yl)azetidin-1-yl)pentanamido)-3,3-dimethylbutanoyl)-N-(4-(4-methylthiazol-5-yl)benzyl)pyrrolidine-2-carboxamide] | C (“C” indicates maximum degradation < 50%) |
| – | < 50 | – | Cc1ncsc1-c1ccc(CNC(=O)[C@@H]2C[C@@H](O)CN2C(=O)[C@@H](NC(=O)CCC(=O)NC23CC(c4cc5cc(-c6ccccc6O)nnc5[nH]4)(C2)C3)C(C)(C)C)cc1 (racemic) [Compound 298, N1-((S)-1-((2S,4R)-4-hydroxy-2-((4-(4-methylthiazol-5-yl)benzyl)carbamoyl)pyrrolidin-1-yl)-3,3-dimethyl-1-oxobutan-2-yl)-N4-(3-(3-(2-hydroxyphenyl)-7H-pyrrolo[2,3-c]pyridazin-6-yl)bicyclo[1.1.1]pentan-1-yl)succinamide] | C (“C” indicates maximum degradation < 50%) |
| > 1000 | < 50 | – | Cc1ncsc1-c1ccc(CNC(=O)[C@@H]2C[C@@H](O)CN2C(=O)[C@@H](NC(=O)CCCCC(=O)NC23CC(c4cc5cc(-c6ccccc6O)nnc5[nH]4)(C2)C3)C(C)(C)C)cc1 (racemic) [Compound 299, N1-((S)-1-((2S,4R)-4-hydroxy-2-((4-(4-methylthiazol-5-yl)benzyl)carbamoyl)pyrrolidin-1-yl)-3,3-dimethyl-1-oxobutan-2-yl)-N6-(3-(3-(2-hydroxyphenyl)-7H-pyrrolo[2,3-c]pyridazin-6-yl)bicyclo[1.1.1]pentan-1-yl)adipamide] | B (“B” indicates maximum degradation ≥ 50%) |
| > 100 | > 50 | – | Cc1ncsc1-c1ccc([C@H](C)NC(=O)[C@@H]2C[C@@H](O)CN2C(=O)[C@@H](c2cc(OCCNCCN3CC(c4cc5cc(-c6ccccc6O)nnc5[nH]4)C3)no2)C(C)C)cc1 (racemic) [Compound 300] | A (“A” indicates maximum degradation ≥ 75%) |
| > 1000 | < 50 | – | Cc1ncsc1-c1ccc(CNC(=O)[C@@H]2C[C@@H](O)CN2C(=O)[C@@H](NC(=O)CCCC(=O)NC23CC(c4cc5cc(-c6ccccc6O)nnc5[nH]4)(C2)C3)C(C)(C)C)cc1 (racemic) [Compound 301, N1-((S)-1-((2S,4R)-4-hydroxy-2-((4-(4-methylthiazol-5-yl)benzyl)carbamoyl)pyrrolidin-1-yl)-3,3-dimethyl-1-oxobutan-2-yl)-N5-(3-(3-(2-hydroxyphenyl)-7H-pyrrolo[2,3-c]pyridazin-6-yl)bicyclo[1.1.1]pentan-1-yl)glutaramide] | B (“B” indicates maximum degradation ≥ 50%) |
| > 10 | > 75 | > 10 | Cc1ncsc1-c1ccc([C@H](C)NC(=O)[C@@H]2C[C@@H](O)CN2C(=O)[C@@H](c2cc(OCCN(C)C34CC(c5cc6cc(-c7ccccc7O)nnc6[nH]5)(C3)C4)no2)C(C)C)cc1 (racemic) [Compound 302, (2S,4R)-4-hydroxy-1-((R)-2-(3-(2-((3-(3-(2-hydroxyphenyl)-7H-pyrrolo[2,3-c]pyridazin-6-yl)bicyclo[1.1.1]pentan-1-yl)(methyl)amino)ethoxy)isoxazol-5-yl)-3-methylbutanoyl)-N-((S)-1-(4-(4-methylthiazol-5-yl)phenyl)ethyl)pyrrolidine-2-carboxamide] | A (“A” indicates maximum degradation ≥ 75%) |
| – | < 50 | – | Cc1ncsc1-c1ccc([C@H](C)NC(=O)[C@@H]2C[C@@H](O)CN2C(=O)[C@@H](c2cc(OCCN3CCc4[nH]c5nnc(-c6ccccc6O)cc5c4C3)no2)C(C)C)cc1 (racemic) [Compound 303, (2S,4R)-4-hydroxy-1-((R)-2-(3-(2-(3-(2-hydroxyphenyl)-5,7,8,9-tetrahydro-6H-pyrido[3′,4′:4,5]pyrrolo[2,3-c]pyridazin-6-yl)ethoxy)isoxazol-5-yl)-3-methylbutanoyl)-N-((S)-1-(4-(4-methylthiazol-5-yl)phenyl)ethyl)pyrrolidine-2-carboxamide] | C (“C” indicates maximum degradation < 50%) |

Reference: patent US20240024488A1, “COMPOUNDS AND USES THEREOF” (Foghorn Therapeutics Inc., priority 2020, published 2024)
